# Experimental data taken from patent US6207656A, “Vitamin D analogues and their neuronal effects” (Cephalon, Inc., priority 1998, dated 2001).
# “Also recorded” adds a separate entry of the source.
# Assays:
# NGF mRNA = experiment: Induction of NGF mRNA expression in primates; assay type: in vivo, monkey
# Method: Twelve monkeys, ranging in weight from 2.0 Kg to 4.7 Kg, were divided into three groups of 4 animals each: the vehicle group (i.e., control), group dosed with 10 μg/kg/day, and group dosed with 30 μg/kg/clay. The monkeys were dosed orally for 8 days with Compound (A) and were sacrificed 5 hours after the last dosing. Brain regions were dissected and quick frozen. The dissected septi were divided into 3 preparations and two of the three regions of septum were analyzed. Total RNA was prepared and reverse transcribed and gene expression was assessed using polymerase chain reaction by the following procedure.
# Total RNA was prepared by homogenizing sections of tissue in 750 μl RNAzolB™ (Biotecx Laboratories, Houston, Tex.) using a homogenizer (Tekmar, Germany) until fully homogenized and then 250 μl RNAzilB™ was added. RNA was prepared as recommended by the manufacturer (Biotecx Laboratories). […] Concentration of RNA was measured spectrophotometrically and the quality of RNA was visualized on a nondenaturing agarose gel. […]
# An average of 4 PCR assays (two assays for each gene for two cDNA sets) were used in determining the induction of mRNA expression. To assure that PCR assays were within the linear range of the reaction, the linear range for each gene and each cDNA preparation was determined using serial dilutions of cDNAs. […]
# [1] = system: acrylamide-induced peripheral neuropathy in rats; experiment: Acrylamide-induced peripheral neuropathy, landing foot spread; assay type: in vivo, rat
# Method: Peripheral neuropathy was induced in rats by the administration of the neurotoxin acrylamide, 50 mg/kg, IP, 3×/week. The acrylamide treatment occurred during the first three weeks of the experiment. After acrylamide was discontinued, the animals were allowed to recover for an additional 3-5 weeks. The ability of Compound (A) or Compound (B) to either slow the onset of peripheral neuropathy, reduce the severity of the peripheral neuropathy or enhance the recovery from peripheral neuropathy was determined. The compounds were administered either orally (Compound (A)) or via subcutaneous Alzet mini-pumps (I month model)(Compounds (A) and (B)) beginning 3 days prior to the first dose of acrylamide. Compound (A) was administered orally at doses of 0.3, 1.0 and 3.0 μg/kg/day and by mini-pump at doses of 10, 55, 100, 330 and 550 ng/day. Compound (B) was administered by mini-pump at doses of 10, 33, 100, 330 and 1000 ng/day. These dose ranges were selected to limit toxicity and to bracket the dose range used in fimbria fornix lesion experiments. The mini-pumps were replaced at the end of the fourth week so that the test compound was on board for the duration of the experiment. In FIG. 11B, the data from FIG. 11A was averaged.
compound,measurement,setting,value
"C=C1/C(=C\C=C2/CCC[C@]3(C)[C@@H]([C@@H](C)[C@@H](C#CCC(O)(CC)CC)OCC)CC[C@@H]23)C[C@@H](O)C[C@@H]1O [Compound (A), 1(S),3(R)-dihydroxy-20(R)-(1-ethoxy-5-ethyl-5-hydroxy-2-heptyn-1-yl)-9,10-seco-pregna-5(Z),7(E),10(19)-triene]",production of NGF mRNA,"NGF mRNA; 10 and 30 μg/kg/day oral, 8 days, primate septum (FIG. 14A)",facilitated the production of NGF mRNA
same,dosage of greatest NGF mRNA production,NGF mRNA; 10 vs 30 μg/kg/day oral,greatest at a dosage of 10 μg/kg/day
same,development of peripheral neuropathy,[1]; continuously pumped (mini-pump),did not prevent the development of the acrylamide-induced peripheral neuropathy
same,recovery from peripheral neuropathy,[1]; mini-pump,improved recovery; also recorded: an effect upon the recovery from the lesion was apparent
same,landing foot spread,"[1]; mini-pump, recovery period","effective in reducing landing foot spread, but only during the recovery period; also recorded: decreased landing foot spread during the recovery period"
same,development of peripheral neuropathy,[1]; oral,prevented the development of acrylamide-induced peripheral neuropathy
same,severity of neuropathy and functional recovery,[1]; oral,dose-dependent effects on both the severity of the acrylamide-induced peripheral neuropathy as well as the ability of the animals to functionally recover from the lesion
same,landing foot spread,[1]; oral 3.0 μg/kg/day,statistically significant decrease in landing foot spread
same,time course of decrease in landing foot spread,"[1]; oral 3.0 μg/kg/day, onset days 1-24, recovery days 24-42",occurred during the onset of the lesion (days 1-24) and were sustained through the recovery phase
same,landing foot spread,"[1]; oral, FIGS. 11A-11C legend",decreases landing foot spread
